Values joined by “and” are separate entries in the source; they are usually repeats but may differ in a detail not shown here. Identical values can stand only once.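 Method: 48-hour compound exposure of cells in 96-well plates, five concentrations, linear interpolation of endpoints. GI50 = concentration required for 50% inhibition of growth. Definition used: TGI = concentration required for complete inhibition of growth.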
How the values were obtained:
Experiment in all cases: NCI tumour cell line growth inhibition, 48 h
[1] = test system: UACC-257 melanoma
[2] = test system: IGROV1 ovarian
[3] = test system: SF-268 CNS
[4] = test system: NCI-H460 lung
[5] = test system: NCI-H522 lung
[6] = test system: DMS 273 small cell lung
[7] = test system: HCT-116 colon
[8] = test system: NCI-H226 lung
[9] = test system: OVCAR-4 ovarian
[10] = test system: SK-MEL-2 melanoma
[11] = test system: A498 renal
[12] = test system: SN12C renal
[13] = test system: SNB-19 CNS
[14] = test system: HL-60(TB) leukemia
[15] = test system: MALME-3M melanoma
[16] = test system: OVCAR-8 ovarian
[17] = test system: SK-MEL-5 melanoma
[18] = test system: OVCAR-3 ovarian
[19] = test system: CAKI-1 renal
[20] = test system: HOP-18 NSCLC
[21] = test system: SNB-78 CNS
[22] = test system: U251 CNS
[23] = test system: K-562 leukemia
[24] = test system: SF-295 CNS
[25] = test system: KM12 colon
[26] = test system: P388 leukemia
[27] = test system: KM20L2 colon
[28] = test system: MOLT-4 leukemia
[29] = test system: DMS 114 small cell lung
[30] = test system: A549 NSCLC
[31] = test system: SK-OV-3 ovarian
[32] = test system: P388/ADR leukemia
[33] = test system: OVCAR-5 ovarian
[34] = test system: HOP-92 NSCLC
[35] = test system: HOP-62 NSCLC
[36] = test system: SF-539 CNS
[37] = test system: HCT-15 colon
[38] = test system: RPMI-8226 leukemia
[39] = test system: MCF7 breast
[40] = test system: SN12K1 renal
[41] = test system: UACC-62 melanoma
[42] = test system: NCI/ADR-RES ovarian
[43] = test system: DLD-1 colon
[44] = test system: RXF 393 renal
[45] = test system: CCRF-CEM leukemia
[46] = test system: XF 498 CNS
[47] = test system: HT29 colon
[48] = test system: SNB-75 CNS
[49] = test system: LOX IMVI melanoma
[50] = test system: SK-MEL-28 melanoma
[51] = test system: EKVX NSCLC
[52] = test system: M19-MEL melanoma
[53] = test system: NCI-H23 lung
[54] = test system: HCC-2998 colon
[55] = test system: UO-31 renal
[56] = test system: SW-620 colon
[57] = test system: COLO 205 colon

`COc1ccc2cc1Oc1ccc(cc1)C[C@H]1c3cc(c(OC)cc3CCN1C)Oc1c(O)c(OC)cc3c1[C@H](C2)N(C)CC3` gave a TGI [1] of 30.1 µM, a TGI [2] of 65.8 µM and a TGI [3] of 150 µM. For the same compound, the TGI [4] was 45.2 µM, the TGI [5] was 55.7 µM and the TGI [6] was 40.1 µM. For the same compound, the TGI [7] was 36 µM, the TGI [8] was 63 µM and the TGI [9] was 58.1 µM. It also gave a TGI [10] of 48.5 µM, a TGI [11] of 50.4 µM and a TGI [12] of 88.8 µM. The TGI [13] was 134 µM, the TGI [14] was 48.2 µM and the TGI [15] was 52.5 µM. It also gave a TGI [16] of 8.43 µM, a TGI [17] of 29.4 µM and a TGI [18] of 46.8 µM. The TGI [19] was 3.55 µM, the TGI [20] was 139 µM and the TGI [21] was 117 µM. It also gave a TGI [22] of 60.3 µM, a TGI [23] of 83.5 µM and a TGI [24] of 39.7 µM. For the same compound, the TGI [25] was 42.6 µM, the TGI [26] was 19.8 µM and the TGI [27] was 4.27 µM. The TGI [28] was 26.4 µM, the TGI [29] was 49.7 µM and the TGI [30] was 75 µM. It also gave a TGI [31] of 44.5 µM, a TGI [32] of 109 µM and a TGI [33] of 99.6 µM. The TGI [34] was 26.9 µM, the TGI [35] was 65.7 µM and the TGI [36] was 41.6 µM. The TGI [37] was 33.5 µM, the TGI [38] was 75.2 µM and the TGI [39] was 51.5 µM. It also gave a TGI [40] of 39.2 µM, a TGI [41] of 44.7 µM and a TGI [42] of 77.1 µM. For the same compound, the TGI [43] was 53.7 µM, the TGI [44] was 45 µM and the TGI [45] was 83.8 µM. The TGI [46] was 49.4 µM, the TGI [47] was 55.2 µM and the TGI [48] was 52 µM. The TGI [49] was 26.7 µM, the TGI [50] was 48.3 µM and the TGI [51] was 8.53 µM. The TGI [52] was 43.4 µM, the TGI [53] was 95.5 µM and the TGI [54] was 24.7 µM. For the same compound, the TGI [55] was 58.8 µM, the TGI [56] was 37.2 µM and the TGI [57] was 39.4 µM.

`COc1ccc2[nH]cc(/C=C(/C)c3ccncc3)c2c1` was tested, and the GI50 [1] was 8.36 µM, the TGI [1] was 32.8 µM and 26.4 µM and the TGI [2] was > 100 µM. The TGI [3] was > 100 µM, the TGI [4] was 12.5 µM and 22.4 µM and the GI50 [5] was 3.99 µM. For the same compound, the TGI [5] was 21.9 µM and 7.16 µM, the GI50 [6] was 2.37 µM and the TGI [6] was 19.6 µM and 10.5 µM. For the same compound, the GI50 [7] was 3.67 µM, the TGI [7] was 16.8 µM and 20.5 µM and the GI50 [8] was 7.63 µM. For the same compound, the TGI [8] was 38.6 µM and > 100 µM, the GI50 [9] was 17.9 µM and the TGI [9] was > 100 µM. The GI50 [10] was 58.1 µM, the TGI [10] was > 100 µM and 55.9 µM and the TGI [11] was 42.5 µM. For the same compound, the GI50 [12] was 7.58 µM, the TGI [12] was > 100 µM and the GI50 [13] was 15.5 µM. The TGI [13] was > 100 µM, the TGI [14] was 3.93 µM and the GI50 [15] was 3.14 µM. The TGI [15] was 21.9 µM, the GI50 [16] was 7.76 µM and the TGI [16] was > 100 µM. For the same compound, the TGI [17] was 9.24 µM, the GI50 [18] was 4.16 µM and the TGI [18] was > 100 µM. For the same compound, the TGI [19] was > 100 µM, the TGI [20] was > 100 µM and the GI50 [21] was 9.43 µM. The TGI [21] was > 100 µM, the GI50 [22] was 3.24 µM and the TGI [22] was 11 µM and 67.9 µM. For the same compound, the TGI [23] was > 100 µM, the GI50 [24] was 3.63 µM and the TGI [24] was 12.1 µM and 32.8 µM. For the same compound, the GI50 [25] was 0.796 µM, the TGI [25] was > 100 µM and the TGI [26] was 9.68 µM. For the same compound, the GI50 [27] was 2.96 µM, the TGI [27] was 8.67 µM and the GI50 [28] was 2.68 µM. The TGI [28] was 47.9 µM and > 100 µM, the GI50 [29] was 2.23 µM and the TGI [29] was 7.19 µM and 6.35 µM. For the same compound, the GI50 [30] was 5.48 µM, the TGI [30] was > 100 µM and the TGI [31] was 35.6 µM. The TGI [32] was 22.6 µM, the GI50 [33] was 11.6 µM and the TGI [33] was 41.5 µM and > 100 µM. For the same compound, the GI50 [34] was 13.3 µM, the TGI [34] was > 100 µM and 52.6 µM and the TGI [35] was 53.8 µM. For the same compound, the GI50 [36] was 4.46 µM, the TGI [36] was 19.9 µM and > 100 µM and the GI50 [37] was 0.551 µM. The TGI [37] was 18.7 µM and 14 µM, the GI50 [38] was 2.7 µM and the TGI [38] was 16.5 µM and > 100 µM. The GI50 [39] was 0.996 µM, the TGI [39] was > 100 µM and the GI50 [40] was 5.6 µM. The TGI [40] was 27.6 µM and > 100 µM, the TGI [41] was 29.8 µM and 52.9 µM and the GI50 [42] was 2.11 µM. The GI50 [43] was 4 µM, the TGI [43] was > 100 µM and the GI50 [44] was 2.74 µM. For the same compound, the TGI [44] was 10.3 µM, the TGI [45] was > 100 µM and the GI50 [46] was 4.3 µM. The TGI [46] was 27.8 µM and 44.5 µM, the GI50 [47] was 3.64 µM and the TGI [47] was 13.1 µM and 10.9 µM. For the same compound, the GI50 [48] was 4.93 µM, the TGI [48] was 29.5 µM and 7.19 µM and the TGI [49] was 28.8 µM and 18.9 µM. The GI50 [50] was 9.02 µM, the TGI [50] was > 100 µM and the TGI [51] was > 100 µM. For the same compound, the GI50 [52] was 6.77 µM, the TGI [52] was 32 µM and 21.5 µM and the GI50 [53] was 7.07 µM. For the same compound, the TGI [54] was 95.3 µM, the GI50 [55] was 3.85 µM and the TGI [55] was 28.4 µM and 96.4 µM. For the same compound, the TGI [56] was 27.2 µM and > 100 µM and the TGI [57] was 16.4 µM and 13.9 µM.

From PubChem BioAssay (NCI)
